Source: patent publication US4251539A, “Amino derivatives of 3-alkyl-5-(2-hydroxystyryl)-isoxazoles” (BASF Aktiengesellschaft, priority 1978, dated 1981)

Assays:
[1] = tested on: blood pressure in the carotid artery; test: animal or person; settings: for animals died: 10 mg/kg, rats; for ED20: Rattus norvegicus, iv, read-out: Blood pressure-lowering action ED 20%
Description: 2. Blood pressure-lowering action on narcotized rats.
The blood pressure in the carotid artery is measured by means of a Statham transducer.
(2) Intravenous administration to rats under urethane narcosis. ED 20% =
dose, in mg/kg, which lowers the blood pressure by 20%.

[2] = tested on: isoproterenol-induced tachycardia; settings: for ED50: Felis catus, read-out: β-Sympatholytic action ED 50%; for ED50 / β-Sympatholytic action R.A. (relative activity): iv; for β-Sympatholytic action R.A. (relative activity) / β-sympatholytic activity (in words): in vivo
[3] = tested on: blood pressure in the carotid artery; settings: general statement, no test or species given; cited from earlier work
[4] = tested on: systolic blood pressure; test: Anti-hypertensive action on spontaneously hypertonic rats (oral); type: in vivo, male spontaneously hypertonic Okamoto rats
Description: 3. Anti-hypertensive action on spontaneously hypertonic rats.
The substances are administered orally to groups of 8 male spontaneously hypertonic Okamoto rats (weight 280-350 g). Before, and two hours after, the administration the systolic blood pressure is measured non-surgically on the rats' tails by means of piezoelectric crystal sensors.

[5] = in vivo; settings: for LD 50 / toxicity compared with propranolol (in words): i.p., mice
Source text: 4. Acute toxicity in mice
The period of observation is 1 week.
(4) Intraperitoneal administration to mice.

[6] = 0.001 mg/kg i.v., cats under hexobarbital narcosis, average

Row | Structure (SMILES) | ED50 [2] | ED20 [1] | β-Sympatholytic action R.A. (relative activity) [2] | LD 50 / toxicity compared with propranolol (in words) [5] | other results
1 | CC(C)NCC(O)COc1cccc2ccccc12 (stereo not drawn) [Propranolol, reference compound] | 0.11 mg/kg | – | – | – | animals died ([1]; i.v.): 2 out of 6; anti-hypertensive action of conventional β-sympatholytic agents (in words) [3]: only exhibit an anti-hypertensive action on lengthy administration; anti-hypertensive action, oral (in words) ([4]; oral, spontaneously hypertonic rats, propranolol up to a dose of 100 mg/kg): ineffective
2 | C#CC(C)(C)NCC(O)COc1ccccc1C=Cc1cc(C)no1 (stereo not drawn) [Example 13, 3-Methyl-5-[2-(2-hydroxy-3-(3-methyl-but-1-ynyl-3-amino)-propoxy)-styryl]-isoxazole] | 0.017 mg/kg | 1 mg/kg | 6.5 | more than twice as high as that of propranolol | –
3 | CCc1cc(C=Cc2ccccc2OCC(O)CNC(C)(C)C)on1 (stereo not drawn) [Example 6, 3-Ethyl-5-[2-(2-hydroxy-3-tert.-butylaminopropoxy)-styryl]-isoxazole] | 0.018 mg/kg | 0.93 mg/kg | 6.1 | of the same toxicity, or somewhat more toxic | β-sympatholytic activity (in words) [2]: high activity
4 | CC(C)NCC(O)c1ccc(O)c(O)c1 (stereo not drawn) [isoproterenol, reference compound] | – | – | – | – | increase of pulse rate [2, 6]: 61 beats; increase of pulse rate, percent [2, 6]: 40%
5 | Cc1cc(C=Cc2ccccc2OCC(O)CNC(C)(C)C)on1 (stereo not drawn) [Example 3, 3-Methyl-5-[2-(2-hydroxy-3-tert.-butylaminopropoxy)-styryl]-isoxazole] | 0.0055 mg/kg | 0.4 mg/kg | – | somewhat higher than that of propranolol | animals died ([1]; i.v.): 1 out of 6; Blood pressure-lowering action ED 20% ([1]; i.v., rats under urethane narcosis, dose lowering mean carotid artery pressure by 20%): 0.40 mg/kg; ED20 ([4]; Rattus norvegicus, po, 2 h, read-out: Anti-hypertensive action ED 20%): 14.5 mg/kg
6 | CCc1cc(C=Cc2ccccc2OCC(O)CNC2CC2)on1 (stereo not drawn) [Example 5, 3-Ethyl-5-[2-(2-hydroxy-3-cyclopropylaminopropoxy)-styryl]-isoxazole] | 0.12 mg/kg | 0.83 mg/kg | 0.9 | of the same toxicity, or somewhat more toxic | LD50 at 168 h ([5]; mouse, in vivo, ip): 95 mg/kg
7 | Cc1cc(C=Cc2ccccc2OCC(O)CNC(C)C)on1 (stereo not drawn) [Example 1, 3-Methyl-5-[2-(2-hydroxy-3-isopropyl-aminopropoxy)-styryl]-isoxazole] | 0.0077 mg/kg | 0.65 mg/kg | – | of the same toxicity, or somewhat more toxic | β-sympatholytic activity (in words) [2]: high activity
